Experimental data: US20260285850A1, “SUBSTITUTED OXAZOLIDINONES AND IMIDAZOLINONES AS HERBICIDES” (FMC CORPORATION, priority 2023, published 2026)

What was measured:
Assay type in all cases: in vivo
[1] = test system: ducksalad (Heteranthera limosa); assay: Test B flooded paddy test, visual plant response rating 0-100; conditions: 250 g ai/ha, Flood, applied to paddy water, evaluated after 13 days
Summary of the method: (§1)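 Each species was raised to two leaves before flooding to a 3 cm depth and dosing the water with compound. Injury was assessed by eye after 13 days under greenhouse conditions.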

[2] = test system: sedge, umbrella (small-flower umbrella sedge, Cyperus difformis); assay: as above; conditions: 250 g ai/ha, Flood, applied to paddy water, evaluated after 13 days
Summary of the method: as §1

[3] = test system: barnyardgrass (Echinochloa crusgalli); assay: as above; conditions: 250 g ai/ha, Flood, applied to paddy water, evaluated after 13 days
Summary of the method: as §1

[4] = test system: rice (Oryza sativa); assay: as above; conditions: 250 g ai/ha, Flood, applied to paddy water, evaluated after 13 days
Summary of the method: as §1

[5] = test system: wheat (Triticum aestivum); assay: Test A postemergence application, visual injury rating 0-100; conditions: Postemergence, 10 days, 0 is no effect, 100 is complete control
Summary of the method: (§2)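 Grow plants in loam soil blended with sand. Apply formulated compound (non-phytotoxic solvent, surfactant) as a directed soil spray before emergence, or to plants at the one- to two-leaf stage after emergence. Hold in greenhouse 10 days, then rate injury visually versus untreated controls on a 0-100 scale.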

[6] = test system: ragweed (common ragweed, Ambrosia artemisiifolia); assay: as above; conditions: Postemergence, 10 days, 0 is no effect, 100 is complete control
Summary of the method: as §2

[7] = test system: green foxtail (Setaria viridis); assay: as above; conditions: Postemergence, 10 days, 0 is no effect, 100 is complete control
Summary of the method: as §2

[8] = test system: galium (catchweed bedstraw, Galium aparine); assay: as above; conditions: Postemergence, 10 days, 0 is no effect, 100 is complete control
Summary of the method: as §2

[9] = test system: soybean (Glycine max); assay: as above; conditions: Postemergence, 10 days, 0 is no effect, 100 is complete control
Summary of the method: as §2

[10] = test system: horseweed (Erigeron canadensis); assay: as above; conditions: Postemergence, 10 days, 0 is no effect, 100 is complete control
Summary of the method: as §2

[11] = test system: blackgrass (Alopecurus myosuroides); assay: as above; conditions: Postemergence, 10 days, 0 is no effect, 100 is complete control
Summary of the method: as §2

[12] = test system: barnyardgrass (Echinochloa crus-galli); assay: as above; conditions: Postemergence, 10 days, 0 is no effect, 100 is complete control
Summary of the method: as §2

[13] = test system: kochia (Bassia scoparia); assay: as above; conditions: Postemergence, 10 days, 0 is no effect, 100 is complete control
Summary of the method: as §2

[14] = test system: ryegrass, Italian (italian ryegrass, Lolium multiflorum); assay: as above; conditions: Postemergence, 10 days, 0 is no effect, 100 is complete control
Summary of the method: as §2

[15] = test system: palmer (palmer amaranth, palmer pigweed, Amaranthus palmeri); assay: as above; conditions: Postemergence, 10 days, 0 is no effect, 100 is complete control
Summary of the method: as §2

[16] = test system: corn (Zea mays); assay: as above; conditions: Postemergence, 10 days, 0 is no effect, 100 is complete control
Summary of the method: as §2

[17] = test system: oat, wild (wild oat, Avena fatua); assay: as above; conditions: Postemergence, 10 days, 0 is no effect, 100 is complete control
Summary of the method: as §2

[18] = test system: wheat (Triticum aestivum); assay: Test A preemergence soil spray, visual injury rating 0-100; conditions: 10 days, 0 = no effect, 100 = complete control
Summary of the method: as §2

[19] = test system: ragweed (common ragweed, Ambrosia artemisiifolia); assay: as above; conditions: 10 days, 0 = no effect, 100 = complete control
Summary of the method: as §2

[20] = test system: green foxtail (Setaria viridis); assay: as above; conditions: 10 days, 0 = no effect, 100 = complete control
Summary of the method: as §2

[21] = test system: soybean (Glycine max); assay: as above; conditions: 10 days, 0 = no effect, 100 = complete control
Summary of the method: as §2

[22] = test system: blackgrass (Alopecurus myosuroides); assay: as above; conditions: 10 days, 0 = no effect, 100 = complete control
Summary of the method: as §2

[23] = test system: barnyardgrass (Echinochloa crus-galli); assay: as above; conditions: 10 days, 0 = no effect, 100 = complete control
Summary of the method: as §2

[24] = test system: kochia (Bassia scoparia); assay: as above; conditions: 10 days, 0 = no effect, 100 = complete control
Summary of the method: as §2

[25] = test system: ryegrass, Italian (italian ryegrass, Lolium multiflorum); assay: as above; conditions: 10 days, 0 = no effect, 100 = complete control
Summary of the method: as §2

[26] = test system: palmer (palmer amaranth, palmer pigweed, Amaranthus palmeri); assay: as above; conditions: 10 days, 0 = no effect, 100 = complete control
Summary of the method: as §2

[27] = test system: corn (Zea mays); assay: as above; conditions: 10 days, 0 = no effect, 100 = complete control
Summary of the method: as §2

[28] = test system: oat, wild (wild oat, Avena fatua); assay: as above; conditions: 10 days, 0 = no effect, 100 = complete control
Summary of the method: as §2

CCOC(=O)C1C=CC(NC(=O)C2(C)CN(c3cc(Cl)cc(Cl)c3)C(=O)O2)C1 (stereo not shown) [Compound 44]
80: Plant response rating, Barnyardgrass (0 to 100 scale, 0 is no effect and 100 is complete control) [3] | Ragweed plant response rating (0 to 100 scale) ([6]; 500 g ai/ha) | Soybean plant response rating (0 to 100 scale) ([9]; 500 g ai/ha) | Kochia plant response rating (0 to 100 scale) ([13]; 125 g ai/ha) | Kochia plant response rating (0 to 100 scale) ([13]; 500 g ai/ha) | Ryegrass, Italian plant response rating (0 to 100 scale) ([14]; 500 g ai/ha) | Oat, Wild plant response rating (0 to 100 scale) ([28]; 125 g ai/ha)
60: Ragweed plant response rating (0 to 100 scale) ([19]; 500 g ai/ha)
90: Plant response rating, Ducksalad (0 to 100 scale, 0 is no effect and 100 is complete control) [1] | Wheat plant response rating (0 to 100 scale) ([5]; 125 g ai/ha) | Wheat plant response rating (0 to 100 scale) ([5]; 500 g ai/ha) | Foxtail, Green plant response rating (0 to 100 scale) ([7]; 125 g ai/ha) | Foxtail, Green plant response rating (0 to 100 scale) ([7]; 500 g ai/ha) | Soybean plant response rating (0 to 100 scale) ([9]; 125 g ai/ha) | Horseweed plant response rating (0 to 100 scale) ([10]; 125 g ai/ha) | Horseweed plant response rating (0 to 100 scale) ([10]; 500 g ai/ha) | Ryegrass, Italian plant response rating (0 to 100 scale) ([14]; 125 g ai/ha) | Oat, Wild plant response rating (0 to 100 scale) ([17]; 125 g ai/ha) | Oat, Wild plant response rating (0 to 100 scale) ([17]; 500 g ai/ha) | Wheat plant response rating (0 to 100 scale) ([18]; 125 g ai/ha) | Wheat plant response rating (0 to 100 scale) ([18]; 500 g ai/ha) | Foxtail, Green plant response rating (0 to 100 scale) ([20]; 125 g ai/ha) | Blackgrass plant response rating (0 to 100 scale) ([22]; 125 g ai/ha) | Ryegrass, Italian plant response rating (0 to 100 scale) ([25]; 125 g ai/ha) | Corn plant response rating (0 to 100 scale) ([27]; 500 g ai/ha) | Oat, Wild plant response rating (0 to 100 scale) ([28]; 500 g ai/ha)
100: Blackgrass plant response rating (0 to 100 scale) ([11]; 125 g ai/ha) | Blackgrass plant response rating (0 to 100 scale) ([11]; 500 g ai/ha) | Barnyardgrass plant response rating (0 to 100 scale) ([12]; 125 g ai/ha) | Barnyardgrass plant response rating (0 to 100 scale) ([12]; 500 g ai/ha) | Amaranth, Palmer / Pigweed, Palmer plant response rating (0 to 100 scale) ([15]; 125 g ai/ha) | Amaranth, Palmer / Pigweed, Palmer plant response rating (0 to 100 scale) ([15]; 500 g ai/ha) | Corn plant response rating (0 to 100 scale) ([16]; 125 g ai/ha) | Corn plant response rating (0 to 100 scale) ([16]; 500 g ai/ha) | Foxtail, Green plant response rating (0 to 100 scale) ([20]; 500 g ai/ha) | Blackgrass plant response rating (0 to 100 scale) ([22]; 500 g ai/ha) | Barnyardgrass plant response rating (0 to 100 scale) ([23]; 125 g ai/ha) | Barnyardgrass plant response rating (0 to 100 scale) ([23]; 500 g ai/ha) | Kochia plant response rating (0 to 100 scale) ([24]; 125 g ai/ha) | Kochia plant response rating (0 to 100 scale) ([24]; 500 g ai/ha) | Ryegrass, Italian plant response rating (0 to 100 scale) ([25]; 500 g ai/ha) | Amaranth, Palmer plant response rating (0 to 100 scale) ([26]; 125 g ai/ha) | Amaranth, Palmer plant response rating (0 to 100 scale) ([26]; 500 g ai/ha)
95: Plant response rating, Sedge, Umbrella (0 to 100 scale, 0 is no effect and 100 is complete control) [2]
10: Ragweed plant response rating (0 to 100 scale) ([19]; 125 g ai/ha)
20: Soybean plant response rating (0 to 100 scale) ([21]; 125 g ai/ha)
70: Ragweed plant response rating (0 to 100 scale) ([6]; 125 g ai/ha) | Galium plant response rating (0 to 100 scale) ([8]; 125 g ai/ha) | Galium plant response rating (0 to 100 scale) ([8]; 500 g ai/ha) | Soybean plant response rating (0 to 100 scale) ([21]; 500 g ai/ha) | Corn plant response rating (0 to 100 scale) ([27]; 125 g ai/ha)
15: Plant response rating, Rice (0 to 100 scale, 0 is no effect and 100 is complete control) [4]
